From PubChem BioAssay (NCI)
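Compound exposure: 48 hours, 5 concentrations, 96-well plates. TGI: total growth inhibition.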

How the values were obtained:
Assay in all cases: NCI anticancer screen, dose series, 48 h
[1] = tested on: UACC-257 melanoma
[2] = tested on: A549 NSCLC
[3] = tested on: SN12C renal
[4] = tested on: HT29 colon
[5] = tested on: U251 CNS
[6] = tested on: K-562 leukemia
[7] = tested on: MALME-3M melanoma
[8] = tested on: HOP-92 NSCLC
[9] = tested on: NCI-H522 lung
[10] = tested on: OVCAR-8 ovarian

Row | SMILES | TGI [1] | TGI [2] | TGI [3] | TGI [4] | TGI [5] | TGI [6] | TGI [7] | TGI [8] | TGI [9] | TGI [10]
1 | O=S(=O)(/N=C(\NO)Nc1ccc(Cl)cc1)C1CC=C(c2ccon2)S1 (centres undefined) | > 100 µM | > 100 µM | 98.9 µM | > 100 µM | > 100 µM | > 100 µM | 43.2 µM | > 85.5 µM | 12.8 µM | > 100 µM
2 | CC(=O)OC1[C@H](n2ccnc2)C[C@H]2[C@@H]3CC=C4CC(N5CCCC5)CC[C@]4(C)[C@H]3CC[C@]12C (some centres undefined) | 55.3 µM | > 100 µM | > 100 µM | > 100 µM | > 100 µM | > 100 µM |  | > 100 µM | > 100 µM | > 100 µM
3 | NC(=O)SCC(=O)Nc1ccc2ncccc2c1 | > 100 µM | > 100 µM | > 100 µM | > 100 µM | 48.7 µM | > 100 µM | > 100 µM | > 100 µM | 69.3 µM | > 100 µM
4 | Cc1ccc([N+](=O)[O-])cc1S(=O)(=O)Nc1ccc(C2=NN(S(=O)(=O)c3cc([N+](=O)[O-])ccc3C)C(c3ccco3)C2)cc1 (centres undefined) | 45.6 µM |  | > 100 µM | > 100 µM |  | > 100 µM | > 100 µM | 47.7 µM | > 100 µM | > 100 µM
5 | Cc1nc2cccc([N+](=O)[O-])c2n1CCCN(C)C | > 100 µM | > 100 µM | > 100 µM | > 100 µM | > 100 µM | > 100 µM | > 100 µM |  | > 100 µM | > 100 µM
6 | COC1=CC(=O)NCCN1 | > 100 µM | > 100 µM | > 100 µM | > 100 µM | > 100 µM | > 100 µM | > 100 µM | > 100 µM | > 100 µM | > 100 µM
7 | Oc1ccccc1-c1nn2c(CCCCCCCCc3nnc4sc(-c5ccccc5O)nn34)nnc2s1 | > 100 µM | > 78 µM | > 100 µM | > 67.7 µM | > 100 µM | > 100 µM | > 100 µM | > 100 µM | 82.5 µM | > 100 µM
8 | O=P1(Oc2ccccc2)NCc2ncccc2O1 (centres undefined) | > 100 µM | > 100 µM | > 100 µM | > 100 µM | > 100 µM | > 100 µM |  | > 100 µM |  | > 100 µM
9 | O=C1C=C2CC[C@H]3[C@@H]4CC[C@H](Oc5c6ccccc6nc6ccccc56)[C@H]4CC[C@@H]3[C@H]2CC1 | > 100 µM | > 100 µM | > 100 µM | > 100 µM | > 100 µM | > 100 µM |  | 80.3 µM |  | > 100 µM
10 | Cc1cc(C)c2c(=O)cc(-c3ccc4ccccc4c3)[nH]c2n1 | > 59.6 µM | > 100 µM | > 100 µM | 59.8 µM | 65.7 µM | 4.26 µM | > 100 µM | 78.8 µM | 72.5 µM | > 100 µM
11 | COC(=O)C1=COc2c(n(C)c3ccccc23)-c2ccccc21 | > 100 µM |  | > 100 µM | > 100 µM | > 100 µM | > 100 µM | > 100 µM |  |  | > 100 µM
